What was measured:
Type in all cases: cell-based
[1] = test system: RPMI1788 cells (human normal B cell line); assay: Cell death inducing effect on RPMI1788 normal B cells, trypan blue staining; details: RPMI1788 (normal B lymphocyte), cell viability
Description: (§1) RPMI1788 cells (human normal B cell line) were cultured under 5% CO2 at 37° C. The culture medium used RPMI-1640 medium with 100 μg/mL penicillin, 100 U/mL streptomycin and fetal bovine serum. RPMI1788 cells were seeded into 96-well plates and incubated with each concentration of the compounds was added, and cell viability was determined by the trypan blue staining.
(§2) For controls, only 0.5% DMSO (diluted in PBS) used to dissolve the compounds was added. For each concentration, each bar line is indicated by an arrow with the sign “n, a, 1, 2, 3, 4, 5, 6, 7, 8, 9, 10, 11, 12” from left to right. The “1, 3, 5, 7, 9, 11” are omitted from the graph, but the sign “1” shall be indicated by an arrow between the signs “a” and “2”, the sign “3” between the signs “2” and “4”, and other odd numbers shall likewise be indicated by arrows between even numbers before and after.
(§3) The sign “n” is the norathyriol (formula (n)) administration group, the sign “a” is the mangiferin 8a (formula (a)) administration group, the sign “1” is the yk-7 (formula (1)) administration group, the sign “2” is the yk-8-1 (formula (2)) administration group, the sign “3” is the yk-8-3 (formula (3)) administration group, the sign “4” is the M7 (formula (4)) administration group, the sign “5” is the M9 (formula (5)) administration group, the sign “6” is the M11 (formula (6)) administration group, the sign “7” is the M12 (formula (7)) administration group, the sign “8” is the M14 (formula (8)) administration group, the sign “9” is the M15 (formula (9)) administration group, the sign “10” is the M16 (formula (10)) administration group, the sign “11” is the M18 (formula (11)) administration group, the sign “12” is the M19 (formula (12)) administration group, respectively. The IC50 values for each compound is also listed in the upper right corner of the figure.

[2] = test system: KMS-28BM cells (myeloma cell line); assay: Cell death inducing effect on KMS-28BM cells, trypan blue staining; details: KMS-28BM (myeloma), cell viability
Description: as §1, with “KMS-28BM” for “RPMI1788”, “(myeloma” for “(human normal B”
as §2, §3

[3] = test system: NF-κB p52 nuclear; assay: Immunoblotting of NF-κB p52 nuclear in KMS-28BM cells; details: nuclear fraction, 72 h, same concentrations (0.005-100 μM)
Description: Immunoblotting was performed on KMS-28BM cells to investigate the inhibitory effect of each compound administration on NIK inhibition and the activation of IKK, NF-κB p52, and NF-κB p65, which are downstream signals of NIK. As a result, inhibition of NIK activation, inhibition of IKK activity, and inhibition of nuclear translocation of NF-κB p52 and NF-κB p65 were observed (FIG. 15 and FIG. 16).
As a control, compounds untreated KMS-28BM cells were seeded in 150 cm^2 flasks and incubated for 72 h at 37° C. and 5% CO2. KMS-28BM cells were seeded into 150 cm^2 flasks and pre-cultured for 24 h. After incubation, KMS-28BM cells were treated with […], 1 μM norathyriol, 0.5 μM M7 (formula (4)), 1 μM M8 (mangiferin 8a: listed in duplicate), 0.2 μM M9 (formula (5)), 5 μM yk-7 (formula (1)), 0.5 μM yk-8-3 (formula (3)) and 100 μM yk-8-1 (formula (2)) at final concentrations, and incubated for 72 h at 37° C. and 5% CO2. In addition, KMS-28BM cells were also treated with 0.5 μM M19 (formula (12)), 0.5 μM M18 (formula (11)), 0.005 μM M16 (formula (10)), […] (formula (9)), 0.005 μM M14 (formula (8)), 0.05 μM M12 (formula (7)) and […] (formula (6)) at the final concentrations, and incubated for 72 h at 37° C. and 5% CO2. Proteins were extracted from these cell suspensions with cell lysate and used as samples.
The nucleus and cytoplasmic substrate were separated from the cells using the ProteoExtract (registered trademark) Subcellular Proteome Extraction Kit from Merck Ltd. to extract the cytoplasmic and nuclear fractions.
After SDS-PAGE, each sample was transferred to a PVDF membrane and examined using anti-phospho-NIK, anti-NIK, anti-phospho-IKK, anti-IKK, anti-P-actin, anti-NF-κB p52 and anti-NF-κB p65 antibody, and anti-Lamin antibody.
The antibody species is indicated in the vertical direction. Specifically, for anti-phospho-NIK antibody, “Phospho-NIK” was used, for anti-NIK antibody, “NIK” was used, for anti-phospho-IKK antibody, “Phospho-IKK” was used, for anti-IKK antibody, “IKK” was used, for anti-p-actin antibody, “p-actin” was used, for anti-NF-κB p52 antibody, “NF-κB p52 nuclear” was used, for anti-NF-κB p65 antibody, “NF-κB p65 nuclear” was used, and for anti-Lamin antibody, “Lamin” was used.

[4] = test system: CD20; assay: CD20 expression in KMS-28BM cells, flow cytometry; details: 10 days, concentration lower than the IC50 (0.005-50 μM), compared to the positive control
Description: As a control, compounds untreated KMS-28BM cells were seeded in 75 cm^2 flasks and incubated for 10 days at 37° C. and 5% CO2. KMS-28BM cells were seeded into 75 cm^2 flasks and pre-cultured for 4 h. After incubation, KMS-28BM cells were treated with […], 0.05 μM M9, 0.1 μM yk-7, 0.1 μM yk-8-3, 50 μM yk-8-1, 0.5 μM M11, […], 0.005 μM M14, 0.005 μM M15, 0.005 μM M16, 0.5 μM M18, and 0.5 μM M19 at final concentrations, and incubated for 10 days at 37° C. and 5% CO2. This added amount is a concentration lower than the IC50 of the above compounds for KMS-28BM cells. After 10 days of incubation, cells were stained with anti-CD20 antibody, a B cell marker, and CD20 expression was measured using BD LSRFortessa. CCRF-SB cells were used as CD20-positive controls.
Results are shown in FIG. 21, FIG. 22, FIG. 23, and FIG. 24. The horizontal axis represents the expression level of CD20 and the vertical axis represents the number of cells.

[5] = test system: RR1 cells (rituximab-resistant burkitt lymphoma cell line); assay: Cell death inducing effect on RR1 cells, trypan blue staining; details: RR1 (Burkkit lymphoma; rituximab resistance), cell viability
Description: Raji cells, a burkitt lymphoma cell line, were modified to be rituximab-resistant and named RR1 cells.
RR1 cells (rituximab-resistant burkitt lymphoma cell line) were cultured under 5% CO2 at 37° C. The culture medium used RPMI-1640 medium with 100 μg/mL penicillin, 100 U/mL streptomycin and fetal bovine serum. RR-1 cells were seeded into 96-well plates and incubated with each concentration of the compounds was added, and cell viability was determined by the trypan blue staining.
as §2, §3

Compound	IC50 ([1]; Homo sapiens, RPMI-1788) [nM]	IC50 [2] [nM]	NF-κB p52 nuclear [3]	CD20 expression level [4]	IC50 [5] [nM]	IC50 [1] [nM]
CCCCC(=O)OC[C@H]1O[C@@H](c2c(O)cc3oc4cc(O)c(O)cc4c(=O)c3c2OC(=O)CCCC)[C@H](OC(=O)CCCC)[C@@H](OC(=O)CCCC)[C@@H]1OC(=O)CCCC [yk-8-3, 1,2′,3′,4′,6-penta-O-valerylmangiferin]	416	570	decreased	significantly increased	72	–
CCCCO[C@@H]1[C@@H](OCCCC)[C@H](c2c(O)cc3oc4cc(O)c(O)cc4c(=O)c3c2O)O[C@H](COC(=O)CCC)[C@H]1OC(=O)CCC [Compound M16, 2′,3′-di-O-butyl-4′,6′-di-O-butyrylmangiferin]	58000	70	decreased	significantly increased	7	–
CCCCC(=O)OC[C@H]1O[C@@H](c2c(OC(=O)CCCC)cc3oc4cc(OC(=O)CCCC)c(OC(=O)CCCC)cc4c(=O)c3c2OC(=O)CCCC)[C@H](OC(=O)CCCC)[C@@H](OC(=O)CCCC)[C@@H]1OC(=O)CCCC [yk-8-1, 1,3,2′,3′,4′,6,6′,7-octa-O-valerylmangiferin]	–	> 100000	decreased	significantly increased	21400	> 100000
CC(C)(C)C(=O)OC[C@H]1O[C@@H](c2c(O)cc3oc4cc(O)c(O)cc4c(=O)c3c2O)[C@H](OC(=O)C(C)(C)C)[C@@H](OC(=O)C(C)(C)C)[C@@H]1OC(=O)C(C)(C)C [Compound M15, 2′,3′,4′,6′-tetra-O-pivaloylmangiferin]	71000	170	decreased	significantly increased	11	–
CCCC(=O)OC[C@H]1O[C@@H](c2c(OC(=O)CCC)cc3oc4cc(OC(=O)CCC)c(OC(=O)CCC)cc4c(=O)c3c2OC(=O)CCC)[C@H](OC(=O)CCC)[C@@H](OC(=O)CCC)[C@@H]1OC(=O)CCC [Compound M11, 1,3,2′,3′,4′,6,6′,7-octa-O-butyrylmangiferin]	–	1910	decreased	significantly increased	828	> 100000
O=c1c2cc(O)c(O)cc2oc2cc(O)cc(O)c12 [norathyriol, reference compound]	–	1500	decreased	–	737	–
1,2′,3′,4′,6-penta-O-propionylmangiferin [Compound 8a, reference compound]	–	2170	decreased	–	328	> 100000
C=CCOc1cc(O)cc2oc3cc(O)c(O)cc3c(=O)c12 [Compound M19, 1-allyloxy-3,6,7-trihydroxy-9H-xanthen-9-one]	> 100000	2100	decreased	significantly increased	791	–
CCC(=O)OC[C@H]1O[C@@H](c2c(O)cc3oc4cc(O)c(O)cc4c(=O)c3c2O)[C@H](OC(=O)CC)[C@@H](OC(=O)CC)[C@@H]1OC(=O)CC [Compound M9, 2′,3′,4′,6′-tetra-O-propionylmangiferin]	> 100000	210	decreased	significantly increased	7	–
O=c1c2cc(O)c(O)cc2oc2cc(O)cc(OCCO)c12 [Compound M18, 3,6,7-trihydroxy-1-(2-hydroxyethoxy)-9H-xanthen-9-one]	> 100000	890	decreased	significantly increased	651	–
CCCCC(=O)OC[C@H]1O[C@@H](c2c(O)cc3oc4cc(O)c(O)cc4c(=O)c3c2O)[C@H](OC(=O)CCCC)[C@@H](OC(=O)CCCC)[C@@H]1OC(=O)CCCC [yk-7, 2′,3′,4′,6′-tetra-O-valerylmangiferin]	2760	5300	decreased	significantly increased	42	–
CCCC(=O)OC[C@H]1O[C@@H](c2c(O)cc3oc4cc(O)c(O)cc4c(=O)c3c2OC(=O)CCC)[C@H](OC(=O)CCC)[C@@H](OC(=O)CCC)[C@@H]1OC(=O)CCC [Compound M12, 1,2′,3′,4′,6-penta-O-butyrylmangiferin]	75000	210	decreased	significantly increased	15	–
CCC(=O)OC[C@H]1O[C@@H](c2c(OC(=O)CC)cc3oc4cc(OC(=O)CC)c(OC(=O)CC)cc4c(=O)c3c2OC(=O)CC)[C@H](OC(=O)CC)[C@@H](OC(=O)CC)[C@@H]1OC(=O)CC [Compound M7, 1,3,2′,3′,4′,6,6′,7-octa-O-propionylmangiferin]	> 100000	770	decreased	significantly increased	99	–
CCCC(=O)OC[C@H]1O[C@@H](c2c(O)cc3oc4cc(O)c(O)cc4c(=O)c3c2O)[C@H](OC(=O)CCC)[C@@H](OC(=O)CCC)[C@@H]1OC(=O)CCC [Compound M14, 2′,3′,4′,6′-tetra-O-butyrylmangiferin]	69000	80	decreased	significantly increased	8	–
